Measurements: patent US20260201008A1, “SECRETIN-DERIVED GLP1R SELECTIVE AGONISTS” (GUBRA A/S, priority 2023, published 2026)
Where two headings read alike, the source gives them in different places. Numbered stars: 1 amine (or outer) side, 2 acyl side, 3 side chain; on linkers, the order of the positions; unused ones are H or OH. Square brackets hold non-standard residues; d marks the D form. Side chains are listed from the residue outwards. Peptide text beside a SMILES is read from it. * marks the point of attachment. C20 diacid = O=C(O)CCCCCCCCCCCCCCCCCCC(=O)*; γGlu = O=C(O)[C@H](CCC(=O)[*:2])N[*:1]; AEEA = NCCOCCOCC(=O)O; Aib = CC(C)(N)C(=O)O

How the values were obtained:
[1] = Fibril formation of crude library peptides (Thioflavin T); type: physicochemical; parameters: key: average ThT fluorescence emission at 480 nm (ex 450 nm), raw units; conditions: Physical stability of peptides
Description: (§1) Peptides were dissolved in buffers (50 mM sodium acetate at pH 4.0, or 50 mM sodium phosphate at pH 7.0) to 267 μM and incubated for 1-2 hours at room temperature. The samples were then divided into two replicates of 80 μl in a black 384 well plate (μ-clear, Greiner Bio-One) and mixed with Thioflavin T (ThT) to a final concentration of 4 μM. The plate was centrifuged for 2 min at 2000 rpm to remove air bubbles, sealed, and placed in a plate reader (CLARIOstar, BMG). Firstly, turbidity of the samples was measured as the absorbance at 600 nm. Secondly, the plate reader temperature was set to 40° C. and the fluorescence was measured every 10 min for 72 hours by exciting the ThT at 450 nm and measuring the emission at 480 nm. Samples were stressed by shaking the plate at 700 rpm (linear) for five minutes before every measurement, and fibril formation was determined as the average emission for each sample.

GLP1R = GLP1R (Homo sapiens, UniProt P43220); test: hGLP1R potency, cAMP accumulation in CHO-K1 cells stably overexpressing hGLP1R; type: cell-based; parameters: host or cells: CHO-K1; conditions: for Selectivity: SCTR EC50/GLP1R EC50 ratio
Summary of the method: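 Cells were plated in DPBS with 0.05% casein and 0.5 mM IBMX, then stimulated for 30 min at room temperature with test compound. cAMP was read by TR-FRET after one hour. EC50 came from variable-slope sigmoid nonlinear regression; purified peptides ran as 11-point 3-fold series, n=2.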

[2] = Turbidity of crude library peptides (absorbance at 600 nm); type: physicochemical; conditions: Physical stability of peptides
Description: as §1

SCTR = SCTR (Homo sapiens, UniProt P47872); test: hSCTR potency, cAMP accumulation in CHO-K1 cells stably overexpressing hSCTR; type: cell-based; parameters: alternatively Euroscreen ES-712-AF; FAST-0161L; host or cells: CHO-K1
Summary of the method: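 Division-arrested CHO-K1 cells stably expressing hSCTR were plated in DPBS with 0.05% casein and 0.5 mM IBMX, then stimulated with test peptide for 30 min at room temperature. cAMP was read by HTRF after one hour. EC50 came from variable-slope sigmoidal nonlinear regression.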

[3] = cAMP accumulation, CHO-K1 cells overexpressing hGLP1R, read-out: pEC50 hGLPR1 (converted)
[4] = cAMP accumulation, CHO-K1 cells overexpressing hSCTR, read-out: pEC50 hSCTR (converted)

GLP1R, sequence (P43220 24-463): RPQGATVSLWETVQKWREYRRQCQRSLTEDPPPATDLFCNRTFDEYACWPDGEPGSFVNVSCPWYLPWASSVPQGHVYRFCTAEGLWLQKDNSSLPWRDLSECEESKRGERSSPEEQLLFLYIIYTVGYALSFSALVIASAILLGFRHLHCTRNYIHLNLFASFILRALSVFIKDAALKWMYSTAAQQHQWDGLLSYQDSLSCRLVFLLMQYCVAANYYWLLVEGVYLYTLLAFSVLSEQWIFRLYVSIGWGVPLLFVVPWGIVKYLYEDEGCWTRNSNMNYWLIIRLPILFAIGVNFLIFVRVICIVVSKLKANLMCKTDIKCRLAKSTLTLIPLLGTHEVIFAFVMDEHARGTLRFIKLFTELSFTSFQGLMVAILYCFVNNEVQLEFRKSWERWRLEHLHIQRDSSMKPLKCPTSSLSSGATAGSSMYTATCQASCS
SCTR, sequence (P47872 23-440): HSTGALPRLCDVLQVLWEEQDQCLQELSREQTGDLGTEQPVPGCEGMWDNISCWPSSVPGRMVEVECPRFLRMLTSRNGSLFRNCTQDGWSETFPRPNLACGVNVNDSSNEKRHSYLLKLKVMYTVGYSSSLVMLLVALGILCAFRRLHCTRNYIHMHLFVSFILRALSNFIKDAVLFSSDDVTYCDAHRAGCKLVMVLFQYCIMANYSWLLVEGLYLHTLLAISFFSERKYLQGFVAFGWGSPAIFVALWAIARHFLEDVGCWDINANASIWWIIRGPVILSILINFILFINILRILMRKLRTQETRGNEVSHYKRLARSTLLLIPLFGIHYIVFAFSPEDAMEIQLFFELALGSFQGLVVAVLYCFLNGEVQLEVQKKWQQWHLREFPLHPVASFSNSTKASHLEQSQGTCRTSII

| Compound | Fibril formation [1] | Selectivity (GLP1R) | EC50 (GLP1R; [3]) | Turbidity (pH 7) [2] | EC50 (SCTR; [4]) | EC50 (GLP1R) | EC50 (SCTR) |
| --- | --- | --- | --- | --- | --- | --- | --- |
| CC(C)C[C@H](NC(=O)[C@H](CCC(=O)O)NC(=O)[C@H](CCCCNC(=O)COCCOCCNC(=O)COCCOCCNC(=O)CC[C@H](NC(=O)CCCCCCCCCCCCCCCCCCC(=O)O)C(=O)O)NC(=O)[C@H](CC(C)C)NC(=O)[C@@H](NC(=O)[C@H](CO)NC(=O)[C@@H](NC(=O)[C@H](CC(=O)O)NC(=O)[C@H](CO)NC(=O)[C@@H](NC(=O)[C@H](Cc1ccccc1)NC(=O)[C@@H](NC(=O)CNC(=O)[C@H](CCC(=O)O)NC(=O)C(C)(C)NC(=O)[C@@H](N)Cc1c[nH]cn1)[C@@H](C)O)[C@@H](C)O)C(C)C)[C@@H](C)O)C(=O)N[C@@H](C)C(=O)N[C@@H](C)C(=O)N[C@@H](C)C(=O)N[C@@H](CCC(N)=O)C(=O)N[C@@H](CCCNC(=N)N)C(=O)N[C@@H](Cc1ccccc1)C(=O)N[C@@H](CC(C)C)C(=O)N[C@@H](CCC(=O)O)C(=O)N[C@@H](Cc1c[nH]cn1)C(=O)N[C@@H](CC(C)C)C(=O)N[C@H](C(N)=O)C(C)C [compound 11] (H-H[Aib]EGTFTSDVSTLK([AEEA-AEEA-γGlu-C20 diacid])ELAAAQRFLEHLV-NH2) | 7854 | 11347 |  | 0.08 |  | 0.0501 nM | 631 nM |
| CC(C)C[C@H](NC(=O)[C@H](Cc1ccccc1)NC(=O)[C@H](CCCNC(=N)N)NC(=O)[C@H](CCC(N)=O)NC(=O)[C@H](CCC(N)=O)NC(=O)[C@H](C)NC(=O)[C@H](C)NC(=O)[C@H](CCC(=O)O)NC(=O)[C@H](CCC(=O)O)NC(=O)[C@H](CCCCNC(=O)COCCOCCNC(=O)COCCOCCNC(=O)CC[C@H](NC(=O)CCCCCCCCCCCCCCCCCCC(=O)O)C(=O)O)NC(=O)[C@H](CC(C)C)NC(=O)[C@H](CCC(=O)O)NC(=O)[C@H](CO)NC(=O)[C@@H](NC(=O)[C@H](CC(=O)O)NC(=O)[C@H](CO)NC(=O)[C@@H](NC(=O)[C@H](Cc1ccccc1)NC(=O)[C@@H](NC(=O)CNC(=O)[C@H](CCC(=O)O)NC(=O)C(C)(C)NC(=O)[C@@H](N)Cc1c[nH]cn1)[C@@H](C)O)[C@@H](C)O)C(C)C)C(=O)N[C@@H](CCC(=O)O)C(=O)N[C@@H](Cc1c[nH]cn1)C(=O)N[C@@H](CC(C)C)C(=O)N[C@H](C(N)=O)C(C)C [compound 14] (H-H[Aib]EGTFTSDVSELK([AEEA-AEEA-γGlu-C20 diacid])EEAAQQRFLEHLV-NH2) | 10247 | 9917 | 0.02 nM | 0.08 | 200 nM |  |  |
| CC(C)C[C@H](NC(=O)[C@H](Cc1ccccc1)NC(=O)[C@H](CCCNC(=N)N)NC(=O)[C@H](CCC(N)=O)NC(=O)[C@H](C)NC(=O)[C@H](C)NC(=O)[C@H](C)NC(=O)C(C)(C)NC(=O)[C@H](CCC(=O)O)NC(=O)[C@H](CCCCNC(=O)COCCOCCNC(=O)COCCOCCNC(=O)CC[C@H](NC(=O)CCCCCCCCCCCCCCCCCCC(=O)O)C(=O)O)NC(=O)[C@H](CC(C)C)NC(=O)[C@@H](NC(=O)[C@H](CO)NC(=O)[C@@H](NC(=O)[C@H](CC(=O)O)NC(=O)[C@H](CO)NC(=O)[C@@H](NC(=O)[C@H](Cc1ccccc1)NC(=O)[C@@H](NC(=O)CNC(=O)[C@H](CCC(=O)O)NC(=O)C(C)(C)NC(=O)[C@@H](N)Cc1c[nH]cn1)[C@@H](C)O)[C@@H](C)O)C(C)C)C(C)C)C(=O)N[C@@H](CCC(=O)O)C(=O)N[C@@H](Cc1c[nH]cn1)C(=O)N[C@@H](CC(C)C)C(=O)N[C@H](C(N)=O)C(C)C [compound 15] (H-H[Aib]EGTFTSDVSVLK([AEEA-AEEA-γGlu-C20 diacid])E[Aib]AAAQRFLEHLV-NH2) | 12385 | 3961 | 0.0794 nM | 0.09 | 316 nM |  |  |

The next lines start with results.

| Fibril formation [1] | Selectivity (GLP1R) | EC50 (GLP1R; [3]) | Turbidity (pH 7) [2] | EC50 (SCTR; [4]) | Compound | EC50 (GLP1R) | EC50 (SCTR) |
| --- | --- | --- | --- | --- | --- | --- | --- |
| 10378 | 13668 | 0.0631 nM | 0.08 | 1000 nM | CC(C)C[C@H](NC(=O)[C@H](CCC(=O)O)NC(=O)[C@H](CCCCNC(=O)COCCOCCNC(=O)COCCOCCNC(=O)CC[C@H](NC(=O)CCCCCCCCCCCCCCCCCCC(=O)O)C(=O)O)NC(=O)[C@H](CC(C)C)NC(=O)[C@H](CCCNC(=N)N)NC(=O)[C@H](CO)NC(=O)[C@@H](NC(=O)[C@H](CC(=O)O)NC(=O)[C@H](CO)NC(=O)[C@@H](NC(=O)[C@H](Cc1ccccc1)NC(=O)[C@@H](NC(=O)CNC(=O)[C@H](CCC(=O)O)NC(=O)C(C)(C)NC(=O)[C@@H](N)Cc1c[nH]cn1)[C@@H](C)O)[C@@H](C)O)C(C)C)C(=O)N[C@@H](C)C(=O)N[C@@H](C)C(=O)N[C@@H](C)C(=O)N[C@@H](CCC(N)=O)C(=O)N[C@@H](CCCNC(=N)N)C(=O)N[C@@H](Cc1ccccc1)C(=O)N[C@@H](CC(C)C)C(=O)N[C@@H](CCC(=O)O)C(=O)N[C@@H](Cc1c[nH]cn1)C(=O)N[C@@H](CC(C)C)C(=O)N[C@H](C(N)=O)C(C)C [compound 9] (H-H[Aib]EGTFTSDVSRLK([AEEA-AEEA-γGlu-C20 diacid])ELAAAQRFLEHLV-NH2) |  |  |
| 6765 | 2365 | 0.2 nM | 0.08 | 501 nM | CC(C)C[C@H](NC(=O)[C@H](CCC(=O)O)NC(=O)[C@H](CCCCNC(=O)COCCOCCNC(=O)COCCOCCNC(=O)CC[C@H](NC(=O)CCCCCCCCCCCCCCCCCCC(=O)O)C(=O)O)NC(=O)[C@H](CC(C)C)NC(=O)[C@H](CCCNC(=N)N)NC(=O)[C@H](CO)NC(=O)[C@@H](NC(=O)[C@H](CC(=O)O)NC(=O)[C@H](CO)NC(=O)[C@@H](NC(=O)[C@H](Cc1ccccc1)NC(=O)[C@@H](NC(=O)CNC(=O)[C@H](CCC(=O)O)NC(=O)C(C)(C)NC(=O)[C@@H](N)Cc1c[nH]cn1)[C@@H](C)O)[C@@H](C)O)C(C)C)C(=O)N[C@@H](C)C(=O)N[C@@H](C)C(=O)NC(C)(C)C(=O)N[C@@H](CCC(N)=O)C(=O)N[C@@H](CCCNC(=N)N)C(=O)N[C@@H](Cc1ccccc1)C(=O)N[C@@H](CC(C)C)C(=O)N[C@@H](CCC(=O)O)C(=O)N[C@@H](Cc1c[nH]cn1)C(=O)N[C@@H](CC(C)C)C(=O)N[C@H](C(N)=O)C(C)C [compound 10] (H-H[Aib]EGTFTSDVSRLK([AEEA-AEEA-γGlu-C20 diacid])ELAA[Aib]QRFLEHLV-NH2) |  |  |
| 7904 | 33473 | 0.02 nM | 0.09 | 631 nM | CC(C)C[C@H](NC(=O)[C@H](CCC(=O)O)NC(=O)[C@H](CCCCNC(=O)COCCOCCNC(=O)COCCOCCNC(=O)CC[C@H](NC(=O)CCCCCCCCCCCCCCCCCCC(=O)O)C(=O)O)NC(=O)[C@H](CC(C)C)NC(=O)[C@H](CCC(=O)O)NC(=O)[C@H](CO)NC(=O)[C@@H](NC(=O)[C@H](CC(=O)O)NC(=O)[C@H](CO)NC(=O)[C@@H](NC(=O)[C@H](Cc1ccccc1)NC(=O)[C@@H](NC(=O)CNC(=O)[C@H](CCC(=O)O)NC(=O)C(C)(C)NC(=O)[C@@H](N)Cc1c[nH]cn1)[C@@H](C)O)[C@@H](C)O)C(C)C)C(=O)N[C@@H](C)C(=O)N[C@@H](C)C(=O)N[C@@H](CO)C(=O)N[C@@H](CCC(N)=O)C(=O)N[C@@H](CCCNC(=N)N)C(=O)N[C@@H](Cc1ccccc1)C(=O)N[C@@H](CC(C)C)C(=O)N[C@@H](CCC(=O)O)C(=O)N[C@@H](Cc1c[nH]cn1)C(=O)N[C@@H](CC(C)C)C(=O)N[C@H](C(N)=O)C(C)C [compound 12] (H-H[Aib]EGTFTSDVSELK([AEEA-AEEA-γGlu-C20 diacid])ELAASQRFLEHLV-NH2) |  |  |
| 16121 | 11130 | 0.0316 nM | 0.08 | 316 nM | CC(C)C[C@H](NC(=O)[C@H](Cc1ccccc1)NC(=O)[C@H](CCCNC(=N)N)NC(=O)[C@H](CCC(N)=O)NC(=O)[C@@H](NC(=O)[C@H](C)NC(=O)[C@H](C)NC(=O)C(C)(C)NC(=O)[C@H](CCC(=O)O)NC(=O)[C@H](CCCCNC(=O)COCCOCCNC(=O)COCCOCCNC(=O)CC[C@H](NC(=O)CCCCCCCCCCCCCCCCCCC(=O)O)C(=O)O)NC(=O)[C@H](CC(C)C)NC(=O)[C@H](Cc1ccccc1)NC(=O)[C@H](CO)NC(=O)[C@@H](NC(=O)[C@H](CC(=O)O)NC(=O)[C@H](CO)NC(=O)[C@@H](NC(=O)[C@H](Cc1ccccc1)NC(=O)[C@@H](NC(=O)CNC(=O)[C@H](CCC(=O)O)NC(=O)C(C)(C)NC(=O)[C@@H](N)Cc1c[nH]cn1)[C@@H](C)O)[C@@H](C)O)C(C)C)[C@@H](C)O)C(=O)N[C@@H](CCC(=O)O)C(=O)N[C@@H](Cc1c[nH]cn1)C(=O)N[C@@H](CC(C)C)C(=O)N[C@H](C(N)=O)C(C)C [compound 13] (H-H[Aib]EGTFTSDVSFLK([AEEA-AEEA-γGlu-C20 diacid])E[Aib]AATQRFLEHLV-NH2) |  |  |
